What was measured:
[1] = test system: HCT116 (human colorectal carcinoma); test: MTT-test HCT116; type: cell-based
Method: (§1) Since the investigated compounds are designed as theranostic and cytostatic agents, their toxic impact was evaluated as a standard MTT-test. Cytotoxicity was studied on four cell lines, i.e.,—HCT116 (human colorectal carcinoma), MCF-7 (human breast cancer), A549 (human lung adenocarcinoma), and WI-38 (human fetal lung fibroblast). Obtained results appear to be unorthodox: as it is known, the introduction of an organotin moiety tends to noticeably increase compounds’ toxicity and more lipophilic ones do it better, but in the presented data pattern turns vice versa (Table 3).
(§2) HCT-116 (colon carcinoma), MCF-7 (breast adenocarcinoma), A-549 (lung adenocarcinoma) cell lines, and WI-38 (cell line composed of fibroblasts) were derived from The European Collection of Authenticated Cell Cultures (ECACC, Salisbury, UK), cultured in DMEM medium (Gibco™, Dublin, Ireland) supplemented with 10% fetal bovine serum (Gibco™, Brasilia, Brazil). The cells were cultured in an incubator at 37 °C in a humidified 5% CO2 atmosphere and subcultured two times a week.
(§3) The toxicity of compounds was studied on cultured cell lines according to standard MTT protocol.

[2] = test system: MCF-7 (human breast cancer); test: MTT-test MCF-7; type: cell-based
Method: as §1, §2, §3

[3] = test system: A549 (human lung adenocarcinoma); test: MTT-test A549; type: cell-based
Method: as §1, §2, §3

[4] = test system: WI-38 (human fetal lung fibroblast); test: MTT-test WI-38; type: cell-based
Method: as §1, §2, §3

[5] = test system: formation of advanced glycation end products (AGEs); test: Antiglycation activity (BSA-glucose, AGE fluorescence); type: biochemical; details: for Antiglycation activity, M ± SEM: 24 h at 60 °C
Method: The glycation reaction was carried out in a phosphate buffer solution of 0.05 M, pH 7.4. Composition of the reaction medium: 0.36 M glucose solution and 1 mg/mL BSA (fraction V). The test compounds were dissolved in 99% DMSO (final concentration in the reaction medium ~3%). The activity of compound 1 was studied in the concentration range of 1000–0.1 μM, and the activity of aminoguanidine was determined at concentrations of 10,000–1000 μM. Control samples contained an equivalent volume of solvent. The samples were incubated for 24 h at 60 °C.
Data registration was carried out by the spectrofluorimetric method, determining AGE by specific fluorescence at excitation/emission wavelengths of 370/440 nm (spectrofluorimeter M 200 PRO, TECAN Austria GmbH, Grödig, Austria).
In order to exclude false positive results for compounds suppressing AGE fluorescence due to interference, the obtained data were logarithmically normalized according to Equation (4):Fly(log) = 10^(log10(Exp)−log10(Blank)) − 1(4) where Fly(log) is the normalized AGE fluorescence intensity, log10(Exp) and log10(blank) are the decimal logarithms of the actual fluorescence levels of glycated and corresponding non-glycated samples (both containing the test compound and controls).
The activity of other compounds (both non-fluorescent and fluorescent at the wavelengths used) was expressed by the Equation (5):Fly(lin) = Exp − Blank(5) where Fly(lin) is the fluorescence intensity of AGEs, Exp and blank are the actual fluorescence levels of glycated and corresponding non-glycated samples (both those containing the test compound and controls).
Determination of activity expressed as % suppression of fluorescence of AGE, was made according to the Equation (6):% = 100 − (Fly(Exp) × 100/Fly(Contr))(6) where Fly(Exp) and Fly(Contr) are the CPG fluorescence intensity of experimental and control samples, respectively (log-normalized or non-log-normalized).

`N.N.[Cl][Pt][Cl]` [Cisplatin, reference compound] gave an IC50 [1] of 8.3 ± 3.5 µM, an IC50 [2] of 15.5 ± 3 µM and an IC50 [3] of 10.4 ± 1.5 µM. For the same compound, the IC50 [4] was 16.3 ± 1.9 µM.
In the case of `N=C(N)NN` [Aminoguanidine, reference compound], the IC50 [5] is reported as 5170 µM, the “Antiglycation activity, M ± SEM” value ([5]; concentration 1000 µM) is reported as 21.6 ± 1.8% and the “Antiglycation activity, M ± SEM” value ([5]; concentration 3000 µM) is reported as 39.5 ± 2.2%. For the same compound, the “Antiglycation activity, M ± SEM” value ([5]; concentration 10,000 µM) was 62.0 ± 2.0%.

Source: PMC9741287, “Cytotoxic and Luminescent Properties of Novel Organotin Complexes with Chelating Antioxidant Ligand” (Molecules, 2022)
